Read-outs that look alike come from different tables or passages of the source.
Tests used:
[1] = system: Normal human HEPM fibroblasts; test: Cell Mat Assay, normal cell mat; assay type: cell-based; conditions: normal monolayer
[2] = system: DLD-1-BAG human colon carcinoma cells expressing as activated K-ras gene; test: Cell Mat Assay, DLD-1 tumor cells; assay type: cell-based
[3] = system: Ras-CVLS processing in COS monkey kidney cells; test: COS cell assay: inhibition of Ras-CVLS processing (Western blot); assay type: cell-based
Text: • 1. In vitro enzyme assays: Inhibition of farnesyl protein transferase and geranylgeranyl protein transferase. Both farnesyl protein transferase (FPT) and geranylgeranyl protein transferase (GGPT) I were partially purified from rat brain by ammonium sulfate fractionation followed by Q-Sepharose (Pharmacia, Inc.) anion exchange chromatography essentially as described by Yokoyama et al (Yokoyama, K., et al., (1991), A protein geranylgeranyltransferase from bovine brain: Implications for protein prenylation specificity, Proc. Natl. Acad. Sci USA 88: 5302-5306, the disclosure of which is incorporated herein by reference thereto). Human farnesyl protein transferase was also expressed in E. coli, using cDNA clones encoding both the a and b subunits. The methods used were similar to those published (Omer, C. et al., (1993), Characterization of recombinant human farnesyl protein transferase: Cloning, expression, farnesyl diphosphate binding, and functional homology with yeast prenyl-protein transferases, Biochemistry 32:5167-5176). Human farnesyl protein transferase was partially-purified from the soluble protein fraction of E. coli as described above. […] Two forms of val^12-Ha-Ras protein were prepared as substrates for these enzymes, differing in their carboxy terminal sequence. One form terminated in cysteine-valine-leucine-serine (Ras-CVLS) the other in cystein-valine-leucine-leucine (Ras-CVLL). Ras-CVLS is a substrate for the farnesyl protein transferase while Ras-CVLL is a substrate for geranylgeranyl protein transferase I. The cDNAs encoding these proteins were constructed so that the proteins contain an amino-terminal extension of 6 histidine residues. Both proteins were expressed in Escherichia coli and purified using metal chelate affinity chromatography. The radiolabelled isoprenyl pyrophosphate substrates, [^3H]farnesyl pyrophosphate and [^3H]geranylgeranyl pyrophosphate, were purchased from DuPont/New England Nuclear. Several methods for measuring farnesyl protein transferase activity have been described (Reiss et al 1990, Cell 62: 81; Schaber et al 1990, J. Biol. Chem. 265: 14701; Manne et al 1990, PNAS 87: 7541; and Barbacid & Manne 1993, U.S. Patent No. 5,185,248). […] The reaction was allowed to proceed for 30 minutes at room temperature and then stopped with 0.5 ml of 4% sodium dodecyl sulfate (SDS) followed by 0.5 ml of cold 30% TCA. Samples were allowed to sit on ice for 45 minutes and precipitated Ras protein was then collected on GF/C filter paper mats using a Brandel cell harvester. Filter mats were washed once with 6% TCA, 2% SDS and radioactivity was measured in a Wallac 1204 Betaplate BS liquid scintillation counter. Percent inhibition was calculated relative to the DMSO vehicle control. The geranylgeranyl protein transferase I assay was essentially identical to the farnesyl protein transferase assay described above, with two exceptions: [^3H]geranylgeranylpyrophosphate replaced farnesyl pyrophosphate as the isoprenoid donor and Ras-CVLL was the protein acceptor. […] Cell-Based Assay: Transient expression of val^12-Ha-Ras-CVLS and val^12-Ha-Ras-CVLL in COS monkey kidney cells: Effect of farnesyl protein transferase inhibitors on Ras processing and on disordered cell growth induced by transforming Ras. COS monkey kidney cells were transfected by electroporation with the plasmid pSV-SPORT (Gibco/BRL) containing a cDNA insert encoding either Ras-CVLS or Ras-CVLL, leading to transient overexpression of a Ras substrate for either farnesyl protein transferase or geranylgeranyl protein transferase I, respectively (see above). Following electroporation, cells were plated into 6-well tissue culture dishes containing 1.5 ml of Dulbecco's-modified Eagle's media (GIBCO, Inc.) supplemented with 10% fetal calf serum and the appropriate farnesyl protein transferase inhibitors. After 24 hours, media was removed and fresh media containing the appropriate drugs was re-added.

[4] = system: T24-BAG4 human bladder carcinoma cells expressing an activated H-ras gene; test: Cell Mat Assay, T24 tumor cells; assay type: cell-based; conditions: read-out: Tumor (T-24) IC50
[5] = target: T1, farnesyl protein transferase (FPT) (Rattus norvegicus, UniProt Q02293+Q04631); test: In vitro enzyme assay: inhibition of farnesyl protein transferase (transfer of [3H]farnesyl to Ras-CVLS); assay type: biochemical; conditions: partially purified rat brain FPT, Ras-CVLS
T1 construct: were partially purified from rat brain by ammonium sulfate fractionation followed by Q-Sepharose; from tissue; host or cells: rat brain
Experimental: • 1. In vitro enzyme assays: Inhibition of farnesyl protein transferase and geranylgeranyl protein transferase. […] Human farnesyl protein transferase was also expressed in E. coli, using cDNA clones encoding both the a and b subunits. […] Human farnesyl protein transferase was partially-purified from the soluble protein fraction of E. coli as described above. […] Two forms of val^12-Ha-Ras protein were prepared as substrates for these enzymes, differing in their carboxy terminal sequence. One form terminated in cysteine-valine-leucine-serine (Ras-CVLS) the other in cystein-valine-leucine-leucine (Ras-CVLL). Ras-CVLS is a substrate for the farnesyl protein transferase while Ras-CVLL is a substrate for geranylgeranyl protein transferase I. The cDNAs encoding these proteins were constructed so that the proteins contain an amino-terminal extension of 6 histidine residues. Both proteins were expressed in Escherichia coli and purified using metal chelate affinity chromatography. The radiolabelled isoprenyl pyrophosphate substrates, [^3H]farnesyl pyrophosphate and [^3H]geranylgeranyl pyrophosphate, were purchased from DuPont/New England Nuclear. […] The reaction was allowed to proceed for 30 minutes at room temperature and then stopped with 0.5 ml of 4% sodium dodecyl sulfate (SDS) followed by 0.5 ml of cold 30% TCA. Samples were allowed to sit on ice for 45 minutes and precipitated Ras protein was then collected on GF/C filter paper mats using a Brandel cell harvester. […] Percent inhibition was calculated relative to the DMSO vehicle control. The geranylgeranyl protein transferase I assay was essentially identical to the farnesyl protein transferase assay described above, with two exceptions: [^3H]geranylgeranylpyrophosphate replaced farnesyl pyrophosphate as the isoprenoid donor and Ras-CVLL was the protein acceptor. […] Cell-Based Assay: Transient expression of val^12-Ha-Ras-CVLS and val^12-Ha-Ras-CVLL in COS monkey kidney cells: Effect of farnesyl protein transferase inhibitors on Ras processing and on disordered cell growth induced by transforming Ras. COS monkey kidney cells were transfected by electroporation with the plasmid pSV-SPORT (Gibco/BRL) containing a cDNA insert encoding either Ras-CVLS or Ras-CVLL, leading to transient overexpression of a Ras substrate for either farnesyl protein transferase or geranylgeranyl protein transferase I, respectively (see above). Following electroporation, cells were plated into 6-well tissue culture dishes containing 1.5 ml of Dulbecco's-modified Eagle's media (GIBCO, Inc.) supplemented with 10% fetal calf serum and the appropriate farnesyl protein transferase inhibitors. After 24 hours, media was removed and fresh media containing the appropriate drugs was re-added. 48 hours after electroporation cells were examined under the microscope to monitor disordered cell growth induced by transforming Ras. Cells expressing transforming Ras become more rounded and refractile and overgrow the monolayer, reminiscent of the transformed phenotype. Cells were then photographed, washed twice with 1 ml of cold phosphate-buffered saline (PBS) and removed from the dish by scraping with a rubber policeman into 1 ml of a buffer containing 25 mM Tris, pH 8.0; 1 mM ethylenediamine tetraacetic acid; 1 mM phenylmethylsulfonyl fluoride; […] leupeptin; and 0.1 mM pepstatin. Cells were lysed by homogenization and cell debris was removed by centrifugation at 2000 x g for 10 min. Cellular protein was precipitated by addition of ice-cold trichloroacetic acid and redissolved in […] of SDS-electrophoresis sample buffer. […] Proteins resolved on the gels were electroblotted onto nitrocellulose membranes for immunodetection. […] After washing, membranes were incubated for one hour at room temperature with a 1:5000 dilution of secondary antibody, rabbit anti-rat IgG conjugated to horseradish peroxidase, in PBS containing 1% fetal calf serum.

[6] = system: SW620-BAG human colon carcinoma cells expressing an activated K-ras gene; test: Cell Mat Assay, SW620 tumor cells; assay type: cell-based
[7] = system: DLD-1 (human colon carcinoma cells, ATCC # CCL 221); test: In Vivo Anti-Tumor Studies, subcutaneous DLD-1 tumors; set-up: species or system athymic nu/nu female mice; conditions: Mus musculus, DLD-1, po, QID, 4 weeks, range over the listed compounds
Text: Tumor cells (5 X 10^5 to 8 X 10^6) of DLD-1 (human colon carcinoma cells, ATCC # CCL 221) are innolculated subcutaneously into the flank of 5-6 week o;d athymic nu/nu female mice.

[8] = Homo sapiens, SW-620, Mat assay

Compound	IC50 ([1]; Homo sapiens, Fibroblast)	IC50 ([2]; Homo sapiens, DLD-1, Mat assay)	IC50 ([3]; Primates, COS)	IC50 ([4]; Homo sapiens)	IC50 ([5]; Table 1, read-out: FPT IC50)	IC50 [6, 8]	IC50 [3]	IC50 ([5]; FPT IC50, Table 1)	IC50 [1]	IC50 ([2]; Mat assay)	IC50 [4]	inhibition in vivo at 10 mg/kg ([7]; 10 mg/kg p.o.)	inhibition in vivo at 50 mg/kg ([7]; 50 mg/kg p.o.)	IC50 ([6]; Mat assay)
NC(=O)N1CCC(CC(=O)N2CCC(=C3c4ccc(Cl)c(Br)c4CCc4cc(Br)cnc43)CC2)CC1 (racemic) [Example 15]	> 25 µM	6.25 µM	0.6 µM	3.1 µM	0.022 µM	> 6.25 µM	–	–	–	–	–	–	–	–
NC(=O)N1CCC(CC(=O)N2CCC(=C3c4ncc(Br)cc4CCc4cc(Cl)cc(Br)c43)CC2)CC1 (single isomer, unassigned) [Example 8A]	> 25 µM	< 1.6 µM	–	< 1.6 µM	–	3.1 µM	> 1 µM	–	–	–	–	–	–	–
NC(=O)N1CCC(CC(=O)N2CCN(C3c4ncc(Br)cc4CCc4cc(Cl)cc(Br)c43)CC2)CC1 (single isomer, unassigned) [Example 12A]	> 25 µM	2 µM	–	< 1.6 µM	–	4 µM	0.95 µM	> 0.094 µM	–	–	–	–	–	–
NC(=O)N1CCC(CC(=O)N2CCN(C3c4ncc(Br)cc4CCc4cc(Cl)cc(Br)c43)CC2)CC1 (single isomer, unassigned) [Example 12B]	–	–	–	–	–	–	< 0.025 µM	0.0025 µM	> 25 µM	3.1 µM	< 1.6 µM	7 to 50%	35.4 to 83%	6.25 µM
O=C(Cc1cc[n+]([O-])cc1)N1CCC(C2c3ccc(Cl)c(Br)c3CCc3cc(Br)cnc32)CC1 (single isomer, unassigned) [Example 14]	–	–	–	–	0.062 µM	–	> 1 µM	–	> 25 µM	6.25 µM	< 1.6 µM	–	–	> 12.5 µM
NC(=O)N1CCC(CC(=O)N2CCN([C@H]3c4ccc(Cl)cc4CCc4cc(Br)cnc43)CC2)CC1 [Example 17A]	> 25 µM	4 µM	0.5 µM	3.1 µM	0.048 µM	18 µM	–	–	–	–	–	–	–	–

— patent EP1019392B1, “TRICYCLIC AMIDES USEFUL FOR INHIBITION OF G-PROTEIN FUNCTION AND FOR TREATMENT OF PROLIFERATIVE DISEASES” (SCHERING CORPORATION, priority 1995, dated 1997)
